The MIC is the lowest concentration that inhibits growth of the organism. The HC50 is the concentration giving 50% haemolysis. By IC50 is commonly meant the midpoint of a concentration-inhibition curve.

The values below come from ChEMBL document CHEMBL6074682, “Expanding the therapeutic window of gramicidin S towards a safe and effective systemic treatment of methicillin-resistant S. aureus infections” (Eur J Med Chem, 2025).

In data set [1] the test system is Staphylococcus aureus. The experiment in a line: Antibacterial activity against methicillin-sensitive Staphylococcus aureus ATCC 29213 clinical isolate assessed as bacterial growth inhibition at 256 to 0.125 ug/ml in CAMH broth medium incubated for 16 to 20 hrs by broth microdilution method. It is filed as functional. Particulars: dose 256-0.125 µg/ml, time 16-20 hrs. For orientation: Broth dilution looks for growth in wells or tubes with falling amounts of substance.

The subject of data set [2] is Staphylococcus aureus. Briefly: Antibacterial activity against methicillin-resistant Staphylococcus aureus ATCC USA 300 clinical isolate assessed as bacterial growth inhibition at 256 to 0.125 ug/ml in CAMH broth medium incubated for 16 to 20 hrs by broth microdilution method. It is filed as functional. The following applies: dose 256-0.125 µg/ml, time 16-20 hrs.
Data set [3] can be described thus: Hemolytic activity in human RBC assessed as hemolysis incubated for 1 hr by absorbance based assay. The class given is toxicity, cell-based, Erythrocyte. Particulars: human red blood cells.
A short description of data set [4]: Nephrotoxicity against HEK293 cells assessed as cell viability incubated for 24 hrs by MTT assay. Particulars: human. The class given is toxicity, cell-based. Background: Tetrazolium dyes change colour on reduction, which living cells bring about.
The nature of data set [5]: Retention time of the compound by RP-HPLC analysis. The class given is physicochemical.
Data set [6] is described as follows: Therapeutic index, ratio of HC50 for human RBC to MIC for antibacterial activity against methicillin-sensitive Staphylococcus aureus ATCC 29213 clinical isolate. The class given is toxicity, cell-based. Particulars: pooled result: one value given for 2 cell lines, strains, targets or settings, read-out: TI.
A short description of data set [7]: Hemolytic activity in sheep RBC. Particulars: sheep red blood cells. It is filed as toxicity, cell-based, Ovis aries, Erythrocyte.

Each structure is given as a SMILES string. In brackets after ≈: the same amount, converted by molar mass. Square brackets hold non-standard residues; d marks the D form. Peptide text beside a SMILES is read from it. Tle = CC(C)(C)[C@H](N)C(=O)O; Orn = NCCC[C@H](N)C(=O)O

Turning to `CC(C)C[C@@H]1NC(=O)[C@H](CCCN)NC(=O)[C@H](C(C)C)NC(=O)[C@@H]2CCCN2C(=O)[C@@H](Cc2ccccc2)NC(=O)[C@H](CC(C)C)NC(=O)[C@H](CCCN)NC(=O)[C@H](C(C)C)NC(=O)[C@@H]2CCCN2C(=O)[C@@H](CCCNC(=N)N)NC1=O` (HELM PEPTIDE1{L.[dF].P.V.[Orn].L.[dR].P.V.[Orn]}$PEPTIDE1,PEPTIDE1,1:R1-10:R2$$$V2.0), the minimum inhibitory concentration (MIC) in the data set with Staphylococcus aureus [1] and in the data set with Staphylococcus aureus [2] was 8 µg/mL (≈ 6.95 µM) in each case. Also, the HC50 at 1 h in data set [3] worked out at 39.2 µg/mL. Also, the IC50 at 24 h in data set [4] stood at 18.7 µg/mL (≈ 16.2 µM). This compound yielded a Retention_time in data set [5] of 16.22 min. The selectivity ratio in data set [6] amounted to 4.9. For the same compound, the HC50 in data set [7] is more than 115 µg/mL.

As to `CC(C)(C)[C@@H]1NC(=O)[C@H](CCCN)NC(=O)[C@H](C(C)(C)C)NC(=O)[C@@H]2CCCN2C(=O)[C@@H](Cc2ccccc2)NC(=O)[C@H](C(C)(C)C)NC(=O)[C@H](CCCN)NC(=O)[C@H](C(C)(C)C)NC(=O)[C@@H]2CCCN2C(=O)[C@@H](CCCNC(=N)N)NC1=O` (cyclo([Orn][Tle][dF]P[Tle][Orn][Tle][dR]P[Tle])), the MIC in the data set on Staphylococcus aureus [1] and in the data set with Staphylococcus aureus [2] was 6 µg/mL (≈ 5.09 µM) each time. Further, in data set [3], the concentration for 50% haemolysis (HC50) at 1 h was determined as 84.1 µg/mL. Besides, the IC50 at 24 h in data set [4] amounted to 12.6 µg/mL (≈ 10.7 µM). Also, the Retention_time in data set [5] is listed as 16.92 min. For the same compound, the selectivity ratio in data set [6] came out at 14.

Consider `CC(C)C[C@@H]1NC(=O)[C@H](CCCN)NC(=O)[C@H](C(C)C)NC(=O)[C@@H]2CCCN2C(=O)[C@@H](Cc2ccccc2)NC(=O)[C@H](CC(C)C)NC(=O)[C@H](CCCN)NC(=O)[C@H](C(C)C)NC(=O)[C@@H]2CCCN2C(=O)[C@@H](Cc2ccccc2)NC1=O` [GRAMICIDIN S] (HELM PEPTIDE1{L.[dF].P.V.[Orn].L.[dF].P.V.[Orn]}$PEPTIDE1,PEPTIDE1,1:R1-10:R2$$$V2.0), for which the minimum inhibitory concentration (MIC) in the data set with Staphylococcus aureus [1] and in the data set on Staphylococcus aureus [2] was 4 µg/mL (≈ 3.5 µM) each time. In addition, the HC50 at 1 h in data set [3] turned out to be 12.3 µg/mL. Moreover, the IC50 at 24 h in data set [4] came to 6.45 µg/mL (≈ 5.65 µM). The Retention_time in data set [5] amounted to 18.57 min. Further, in data set [6], the selectivity ratio came to 3.09.
